Where “and” joins values, the source holds several entries; their conditions need not be identical. Equal values may be shown once.
Columns and labels:
Assay in all cases: Disruption of BRAF RBD interaction with Ras (FRET / MOA assay, with Cyclophilin A)
Format in all cases: biochemical
KRAS G13D = KRAS G13D (Homo sapiens, UniProt P01116+P62937, G13D); conditions: KRAS G13D; read-out: KRAS G13D FRET data IC50
Procedure, shortened: (§1)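 Cyclophilin A-dependent ternary complex assay. K-Ras loaded with nucleotide; BRAF RBD as effector. Cpd top 30 μM final, 3 h at 25 °C. Readout: TR-FRET ratio, IC50.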

KRAS WT = KRAS WT (Homo sapiens, UniProt P01116+P62937); conditions: KRAS WT; read-out: KRAS WT FRET data IC50
Sequence of KRAS WT (P01116 1-169 isoform P01116-2 limits assumed): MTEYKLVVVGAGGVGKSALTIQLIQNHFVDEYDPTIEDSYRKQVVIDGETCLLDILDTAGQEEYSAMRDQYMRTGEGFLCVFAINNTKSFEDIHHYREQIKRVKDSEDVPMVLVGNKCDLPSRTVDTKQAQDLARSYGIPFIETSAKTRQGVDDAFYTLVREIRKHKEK
Sequence of KRAS WT (P62937 whole entry): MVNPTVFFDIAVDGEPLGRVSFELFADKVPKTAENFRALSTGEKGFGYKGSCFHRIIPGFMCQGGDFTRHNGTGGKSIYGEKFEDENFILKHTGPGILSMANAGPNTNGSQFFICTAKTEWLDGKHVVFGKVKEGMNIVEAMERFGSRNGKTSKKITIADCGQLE
Procedure, shortened: as §1

KRAS G12V = KRAS G12V (Homo sapiens, UniProt P01116+P62937, G12V); conditions: KRAS G12V; read-out: KRAS G12V FRET data IC50
Sequence of KRAS G12V (P01116 1-169 isoform P01116-2 G12V limits assumed): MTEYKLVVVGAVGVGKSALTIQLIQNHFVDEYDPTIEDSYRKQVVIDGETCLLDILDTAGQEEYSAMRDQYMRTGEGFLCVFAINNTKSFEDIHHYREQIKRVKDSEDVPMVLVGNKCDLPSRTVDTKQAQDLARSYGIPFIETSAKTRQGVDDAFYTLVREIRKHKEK
Sequence of KRAS G12V (P62937 whole entry): as the sequence (P62937 whole entry) above
Procedure, shortened: as §1

NRAS G12C = NRAS G12C (Homo sapiens, UniProt P01111+P62937, G12C); conditions: NRAS G12C; read-out: NRAS G12C FRET data IC50
Sequence of NRAS G12C (P01111 whole entry G12C): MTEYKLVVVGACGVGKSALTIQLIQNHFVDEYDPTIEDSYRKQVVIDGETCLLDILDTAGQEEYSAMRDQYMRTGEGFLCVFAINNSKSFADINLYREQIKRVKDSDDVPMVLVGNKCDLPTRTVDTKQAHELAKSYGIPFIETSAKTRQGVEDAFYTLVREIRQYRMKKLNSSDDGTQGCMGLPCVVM
Sequence of NRAS G12C (P62937 whole entry): as the sequence (P62937 whole entry) above

KRAS G13C = KRAS G13C (Homo sapiens, UniProt P01116+P62937, G13C); conditions: KRAS G13C; read-out: KRAS G13C FRET data IC50
Sequence of KRAS G13C (P01116 1-169 isoform P01116-2 G13C): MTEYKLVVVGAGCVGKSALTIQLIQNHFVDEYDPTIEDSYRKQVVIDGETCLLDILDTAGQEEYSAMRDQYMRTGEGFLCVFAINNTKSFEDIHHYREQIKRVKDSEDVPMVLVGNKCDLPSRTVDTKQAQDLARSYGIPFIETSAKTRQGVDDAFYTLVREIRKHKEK
Sequence of KRAS G13C (P62937 whole entry): as the sequence (P62937 whole entry) above
Procedure, shortened: as §1

KRAS G12S = KRAS G12S (Homo sapiens, UniProt P01116+P62937, G12S); conditions: read-out: KRAS G12S FRET data, IC50
Sequence of KRAS G12S (P01116 1-169 isoform P01116-2 G12S limits assumed): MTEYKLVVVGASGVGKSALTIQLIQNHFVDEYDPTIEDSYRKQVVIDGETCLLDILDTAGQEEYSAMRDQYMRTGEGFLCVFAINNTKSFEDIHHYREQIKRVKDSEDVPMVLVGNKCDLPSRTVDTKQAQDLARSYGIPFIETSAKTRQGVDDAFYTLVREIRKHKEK
Sequence of KRAS G12S (P62937 whole entry): as the sequence (P62937 whole entry) above
Procedure, shortened: as §1

KRAS G12D = KRAS G12D (Homo sapiens, UniProt P01116+P62937, G12D); conditions: read-out: KRAS G12D FRET data, IC50
Sequence of KRAS G12D (P01116 1-169 isoform P01116-2 G12D limits assumed): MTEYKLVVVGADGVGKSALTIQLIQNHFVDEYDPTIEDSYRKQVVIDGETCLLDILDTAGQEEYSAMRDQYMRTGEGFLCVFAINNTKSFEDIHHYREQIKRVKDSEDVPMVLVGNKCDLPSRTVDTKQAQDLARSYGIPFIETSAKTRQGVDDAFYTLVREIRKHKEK
Sequence of KRAS G12D (P62937 whole entry): as the sequence (P62937 whole entry) above
Procedure, shortened: as §1

KRAS G12C = KRAS G12C (Homo sapiens, UniProt P01116+P62937, G12C); conditions: KRAS G12C; read-out: KRAS G12C FRET data IC50
Sequence of KRAS G12C (P01116 1-169 isoform P01116-2 G12C): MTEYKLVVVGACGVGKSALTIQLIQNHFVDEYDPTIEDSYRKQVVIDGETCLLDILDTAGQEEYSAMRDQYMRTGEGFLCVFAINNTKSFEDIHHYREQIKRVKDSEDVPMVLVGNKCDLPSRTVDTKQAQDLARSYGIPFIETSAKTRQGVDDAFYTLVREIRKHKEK
Sequence of KRAS G12C (P62937 whole entry): as the sequence (P62937 whole entry) above
Procedure, shortened: as §1

NRAS Q61K = NRAS Q61K (Homo sapiens, UniProt P01111+P62937, Q61K); conditions: NRAS Q61K; read-out: NRAS Q61K FRET data IC50
Sequence of NRAS Q61K (P01111 whole entry Q61K): as the sequence (P01111 whole entry G12C) above, with C12G, Q61K counted along it
Sequence of NRAS Q61K (P62937 whole entry): as the sequence (P62937 whole entry) above
Procedure, shortened: (§2)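 IC50 reflects compound-driven Ras:Cyclophilin A ternary complex displacing BRAF RBD, read as lowered TR-FRET ratio relative to DMSO after Eu anti-His (10 nM) and APC anti-GST (50 nM) detection for 1.5 h. Prior incubation 3 h, 25° C, with 12.5 nM GMPPNP-loaded Ras, 50 nM BRAF RBD, 25 μM Cyclophilin A; top compound 30 μM.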

NRAS Q61R = NRAS Q61R (Homo sapiens, UniProt P01111+P62937, Q61R); conditions: NRAS Q61R; read-out: NRAS Q61R FRET data IC50
Sequence of NRAS Q61R (P01111 whole entry Q61R): as the sequence (P01111 whole entry G12C) above, with C12G, Q61R counted along it
Sequence of NRAS Q61R (P62937 whole entry): as the sequence (P62937 whole entry) above
Procedure, shortened: as §2

Sequence of KRAS G13D (P01116 1-169 isoform P01116-2 G13D limits assumed): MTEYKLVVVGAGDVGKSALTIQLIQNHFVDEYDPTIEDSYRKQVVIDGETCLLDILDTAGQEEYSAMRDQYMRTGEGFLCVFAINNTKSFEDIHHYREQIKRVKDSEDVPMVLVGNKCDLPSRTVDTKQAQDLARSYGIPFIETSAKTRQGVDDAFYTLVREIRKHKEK
Sequence of KRAS G13D (P62937 whole entry): as the sequence (P62937 whole entry) above

| SMILES | IC50 (KRAS G13D) | IC50 (KRAS WT) | IC50 (KRAS G12V) | IC50 (NRAS G12C) | IC50 (KRAS G13C) | IC50 (KRAS G12S) | IC50 (KRAS G12D) | IC50 (KRAS G12C) | IC50 (NRAS Q61K) | IC50 (NRAS Q61R) |
| --- | --- | --- | --- | --- | --- | --- | --- | --- | --- | --- |
| C=CC(=O)N1CC[C@H](C(=O)N(C)[C@H](C(=O)N[C@H]2Cc3cc(O)cc(c3)-c3cnc4c(c3)c(c(-c3ccccc3CCOC)n4CC)CC(C)(C)COC(=O)[C@@H]3CCCN(N3)C2=O)C(C)C)C1 [Example A210] | > 10 µM | > 10 µM | 1 µM to 10 µM and > 10 µM (3×) | 100 nM to 1 µM and 1 µM to 10 µM and > 10 µM (2×) | > 10 µM | 1 µM to 10 µM and > 10 µM (3×) | > 10 µM | 100 nM to 1 µM and 1 µM to 10 µM and > 10 µM (2×) | 1 to 10 µM | > 10 µM |
| C=CC(=O)N1CC[C@H](C(=O)N(C)[C@H](C(=O)N[C@H]2Cc3nsc(n3)-c3ccc4c(c3)c(c(-c3cccnc3[C@H](C)OC)n4CC)CC(C)(C)COC(=O)[C@@H]3CCCN(N3)C2=O)C(C)C)C1 (atropisomer, axis not shown) [Example A694] | 1 to 10 µM | 1 to 10 µM | 1 to 10 µM | 0.1 to 1 µM | 0.1 to 1 µM | 1 to 10 µM | 1 to 10 µM | 0.1 to 1 µM | 0.1 to 1 µM | 1 to 10 µM |
| C=CC(=O)N1CC[C@@H](N(C)C(=O)N(C)[C@H](C(=O)N[C@H]2Cc3nc(cs3)-c3ccc4c(c3)c(c(-c3cccnc3[C@H](C)OC)n4CC)CC(C)(C)COC(=O)[C@@H]3CCCN(N3)C2=O)C(C)C)C1 [Example A349] | 0.1 to 1 µM | 0.1 to 1 µM | 0.1 to 1 µM | 0.01 to 0.1 µM | 0.1 to 1 µM | 0.1 to 1 µM | 0.1 to 1 µM | 0.01 to 0.1 µM | 0.01 to 0.1 µM | 0.1 to 1 µM |
| CCn1c(-c2cccnc2[C@H](C)OC)c2c3cc(ccc31)-c1csc(n1)C[C@H](NC(=O)[C@H](C(C)C)N(C)C(=O)N1CC(N(C)C(=O)C#CC(C)(C)N3CCC3)C1)C(=O)N1CCC[C@H](N1)C(=O)OCC(C)(C)C2 [Example A379] | 0.1 to 1 µM | 0.1 to 1 µM | 0.1 to 1 µM | 0.01 to 0.1 µM | 0.01 to 0.1 µM | 0.1 to 1 µM | 1 to 10 µM | < 0.01 µM | 0.1 to 1 µM | 0.1 to 1 µM |
| CCn1c(-c2cccnc2[C@H](C)OC)c2c3cc(ccc31)N1CCO[C@@](C)(CC(NC(=O)[C@H](C(C)C)N(C)C(=O)C3(F)CCN(C(=O)C#CC(C)(C)N(C)C)CC3)C(=O)N3CCC[C@H](N3)C(=O)OCC(C)(C)C2)C1 (stereo partly drawn) [Example A550] | 1 to 10 µM | 0.1 to 1 µM | 0.1 to 1 µM | < 0.01 µM | 0.1 to 1 µM | 1 to 10 µM | 1 to 10 µM | < 0.01 µM | 1 to 10 µM | 1 to 10 µM |
| C=CC(=O)N1CCOC2(CCN(C(=O)N(C)[C@H](C(=O)N[C@H]3Cc4nc(n(C)n4)-c4ccc5c(c4)c(c(-c4cccnc4[C@H](C)OC)n5CC(F)(F)F)CC(C)(C)COC(=O)C4CCCN(N4)C3=O)C(C)C)CC2)C1 (stereo partly drawn) [Example A606] | 0.1 to 1 µM | 0.1 to 1 µM | 0.1 to 1 µM | 0.1 to 1 µM | 0.01 to 0.1 µM | 0.1 to 1 µM | 1 to 10 µM | 0.1 to 1 µM | 0.1 to 1 µM | 0.1 to 1 µM |
| C=CC(=O)N1CCOC2(CCN(C(=O)N(C)[C@H](C(=O)N[C@H]3Cc4cccc(c4)-c4ccc5c(c4)c(c(-c4cccnc4[C@H](C)OC)n5CC(F)(F)F)CC(C)(C)COC(=O)C4CCCN(N4)C3=O)C(C)C)CC2)C1 (stereo partly drawn) [Example A608] | 0.1 to 1 µM | 0.1 to 1 µM | 0.1 to 1 µM | 0.1 to 1 µM | 0.01 to 0.1 µM | 0.1 to 1 µM | 0.1 to 1 µM | 0.1 to 1 µM | 0.1 to 1 µM | 0.1 to 1 µM |
| CCn1c(-c2cccnc2[C@H](C)OC)c2c3cc(ccc31)-c1cccc(c1)C[C@H](NC(=O)[C@H](C(C)C)N1CC[C@]3(CCN(C(=O)C#C[C@@H]4COCCN4C4COC4)C3)C1=O)C(=O)N1CCC[C@H](N1)C(=O)OCC(C)(C)C2 [Example A565] | > 10 µM | > 10 µM | 1 to 10 µM | 0.1 to 1 µM | 1 to 10 µM | 1 to 10 µM | > 10 µM | 0.1 to 1 µM | > 10 µM | > 10 µM |
| C=CC(=O)N1CC(OC[C@H](C(=O)N[C@H]2Cc3cc(F)cc(c3)-c3ccc4c(c3)c(c(-c3cccnc3[C@H](C)OC)n4CC)CC(C)(C)COC(=O)[C@@H]3CCCN(N3)C2=O)C(C)C)C1 (atropisomer, axis not shown) [Example A725] | 1 to 10 µM | 1 to 10 µM | 1 to 10 µM | 0.1 to 1 µM | 0.1 to 1 µM | 1 to 10 µM | > 10 µM | 0.1 to 1 µM | 1 to 10 µM | 1 to 10 µM |
| C=CC(=O)N1CC[C@H](C(=O)N(C)[C@H](C(=O)N[C@H]2Cc3cc(O)cc(c3)-c3ccc4c(c3)c(c(-c3cccnc3)n4C3CC3)CC(C)(C)COC(=O)[C@@H]3CCCN(N3)C2=O)C(C)C)C1 [Example A160] | > 10 µM | > 10 µM | > 10 µM | 1 to 10 µM | > 10 µM | > 10 µM | > 10 µM | 0.1 to 1 µM | > 10 µM | > 10 µM |
| C=CC(=O)N1CC[C@@]2(CCN2C(=O)N(C)[C@H](C(=O)N[C@H]2Cc3nc(cs3)-c3ccc4c(c3)c(c(-c3cccnc3[C@H](C)OC)n4CC)CC(C)(C)COC(=O)C3CCCN(N3)C2=O)N(C)C)C1 (single isomer, unassigned) [Example A661] | 0.1 to 1 µM | 0.1 to 1 µM | 1 to 10 µM | 0.01 to 0.1 µM | 0.1 to 1 µM | 0.1 to 1 µM | 1 to 10 µM | 0.01 to 0.1 µM | 0.01 to 0.1 µM | 0.1 to 1 µM |
| C=CC(=O)N1CC[C@H](C(=O)N(C)[C@H](C(=O)N[C@H]2Cc3cc(O)cc(c3)-c3ccc4c(c3)c(c(-c3ccnc5c3[C@@H](OC)CC5)n4CC)CC(C)(C)COC(=O)[C@@H]3CCCN(N3)C2=O)C(C)C)C1 [Example A275] | 0.1 to 1 µM | 0.1 to 1 µM | 0.01 to 0.1 µM | 0.01 to 0.1 µM | 0.01 to 0.1 µM | 0.01 to 0.1 µM | 0.1 to 1 µM | 0.01 to 0.1 µM | 0.1 to 1 µM | 0.1 to 1 µM |
| C=CC(=O)N1CCO[C@H]2CN(C(=O)N(C)[C@H](C(=O)N[C@H]3Cc4cccc(c4)-c4ccc5c(c4)c(c(-c4cccnc4[C@H](C)OC)n5CC)CC(C)(C)COC(=O)C4CCCN(N4)C3=O)C(C)C)C[C@H]21 (stereo partly drawn) [Example A610] | 1 to 10 µM | 0.1 to 1 µM | 1 to 10 µM | 0.01 to 0.1 µM | 0.01 to 0.1 µM | 1 to 10 µM | 1 to 10 µM | 0.01 to 0.1 µM | 0.1 to 1 µM | 0.1 to 1 µM |
| CO[C@@H](COC1CN(C(=O)C#CC(C)(C)N(C)C)C1)C(=O)N[C@H]1Cc2cccc(c2)-c2ccc3c(c2)c(c(-c2cccnc2[C@H](C)OC)n3CC(F)(F)F)CC(C)(C)COC(=O)[C@@H]2CCCN(N2)C1=O [Example A556] | > 10 µM | 1 to 10 µM | 1 to 10 µM | < 0.01 µM | 1 to 10 µM | > 10 µM | > 10 µM | < 0.01 µM | > 10 µM | > 10 µM |
| C=CC(=O)N(C)C1CCN(C(=O)N(C)[C@H](C(=O)N[C@H]2Cc3nc(cs3)-c3ccc4c(c3)c(c(-c3cccnc3[C@H](C)OC)n4CC)CC(C)(C)COC(=O)[C@@H]3CCCN(N3)C2=O)C(C)C)C1 (stereo partly drawn) [Example A384] | 0.1 to 1 µM |  |  | 0.01 to 0.1 µM |  |  |  | 0.01 to 0.1 µM | 0.01 to 0.1 µM | 0.1 to 1 µM |
| CCn1c(-c2cccnc2[C@H](C)OC)c2c3cc(ccc31)N1CCO[C@@H](C[C@H](NC(=O)[C@H](C(C)C)N(C)C(=O)[C@@]3(F)CCN(C(=O)C#CC(C)(C)N4CCC4)C3)C(=O)N3CCC[C@H](N3)C(=O)OCC(C)(C)C2)C1 [Example A726] |  | 1 to 10 µM | 1 to 10 µM | 0.01 to 0.1 µM | 0.1 to 1 µM | 1 to 10 µM | > 10 µM |  | > 10 µM | > 10 µM |
